Results on 1 compound are retold here after patent EP0673239B1, “AQUEOUS ANTIBIOTIC COMPOSITION FOR VETERINARY USE” (priority 1992, dated 1994).

The data set can be described thus: Study 1: cloxacillin in milk after intramammary infusion of Injector 1A. The conditions noted are these: single dose, micronised form in an aqueous base. It counts as in vivo, cows. How it is done:
A number of studies have been conducted in cows to establish the following : - Study 1: Bioavailability of cloxacillin in bovine colostrum following intramammary infusion of Injector 1A. Study 2: Irritancy of aqueous cloxacillin in the bovine mammary gland.
As a secondary objective plasma levels of Cloxacillin were also measured, in order to assess the extent of systemic absorption.
Eight animals were infused with Injector 1A in all four quarters, and samples of milk were taken at the following intervals post infusion : 0.5, 1, 2, 3, 4, 6, 8, 12, 24, 32, 48, 72, 96, 120 and 144 hours.
Quarter results were recorded for all animals (it was not possible to get samples from two of the quarters due to problems associated with hand milking of animals normally used to being machine milked). […] A peak mean value of 5233.4 mg/L was found at the first sampling interval (0.5 hr) with an approximately exponential decline being noted over the next 72 hours.

The structures appear in SMILES notation. Bounds are passed on as bounds.

As for `Cc1onc(-c2ccccc2Cl)c1C(=O)N[C@@H]1C(=O)N2[C@@H]1SC(C)(C)[C@@H]2C(=O)O` [cloxacillin benzathine], the “duration of therapeutic levels” value is recorded as “up to 72 hours”. The Tmax (bovine, milk, read-out: time to high initial peak of antibiotic) is not above 30 min.
